Laboratory results: paper PMC6795878, “Pentagamavunon-1 (PGV-1) inhibits ROS metabolic enzymes and suppresses tumor cell growth by inducing M phase (prometaphase) arrest and cell senescence” (Scientific Reports, 2019)

Molecular target: T1, GST-P1 (Homo sapiens, UniProt P09211)
T1 construct: gene GSTP1; 6xHis-tagged GST-P1 recombinant protein
Assay: GSH-CDNB conjugation assay with purified recombinant enzyme; also PGV-1 bead pulldown competed by glutathione
Assay type: biochemical

T1 sequence (P09211 2-210): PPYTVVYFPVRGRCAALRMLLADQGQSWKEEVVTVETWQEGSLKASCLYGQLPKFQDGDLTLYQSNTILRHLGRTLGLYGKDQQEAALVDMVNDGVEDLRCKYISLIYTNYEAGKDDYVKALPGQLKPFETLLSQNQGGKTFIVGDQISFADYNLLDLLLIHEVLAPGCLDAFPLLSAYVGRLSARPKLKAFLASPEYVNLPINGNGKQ

Question: With Cc1cc(/C=C2\CC/C(=C\c3cc(C)c(O)c(C)c3)C2=O)cc(C)c1O [PGV-1] as the compound, how does the IC50 read?
Answer: Its IC50 is 97.6 ± 3.8 µM.
